Structures are written as SMILES.

In ChEMBL document CHEMBL5543175, “Discovery of Selective Proteolysis-Targeting Chimera Degraders Targeting PTP1B as Long-Term Hypoglycemic Agents” (J Med Chem, 2024) one finds Activity and DC50 data, which are given here for 20 compounds.

Common to all, as to assay type: cell-based
The target of test [1] is T1, Protein cereblon/Tyrosine-protein phosphatase non-receptor type 1 (Homo sapiens, UniProt P18031+Q96SW2). As to the kind of experiment: PROTAC activity at PTP1B/CRBN in insulin treated human HepG2 cells assessed as protein degradation at 5 nM incubated for 48 hrs by Western blot analysis relative to control.
Target sequence in this assay (P18031 whole entry, looked up): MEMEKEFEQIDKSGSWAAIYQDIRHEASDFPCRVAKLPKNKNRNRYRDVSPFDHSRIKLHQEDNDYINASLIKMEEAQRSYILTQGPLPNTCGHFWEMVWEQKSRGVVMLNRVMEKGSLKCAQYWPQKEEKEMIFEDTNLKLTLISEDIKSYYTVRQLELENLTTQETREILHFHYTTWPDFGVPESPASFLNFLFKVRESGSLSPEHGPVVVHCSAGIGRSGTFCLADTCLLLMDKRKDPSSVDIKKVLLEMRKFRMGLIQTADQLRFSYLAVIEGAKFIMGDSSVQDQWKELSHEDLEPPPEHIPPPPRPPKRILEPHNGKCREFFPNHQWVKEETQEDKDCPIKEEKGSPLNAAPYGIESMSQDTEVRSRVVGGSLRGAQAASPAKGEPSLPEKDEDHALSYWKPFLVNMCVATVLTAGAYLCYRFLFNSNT
Target sequence in this assay (Q96SW2 whole entry, looked up): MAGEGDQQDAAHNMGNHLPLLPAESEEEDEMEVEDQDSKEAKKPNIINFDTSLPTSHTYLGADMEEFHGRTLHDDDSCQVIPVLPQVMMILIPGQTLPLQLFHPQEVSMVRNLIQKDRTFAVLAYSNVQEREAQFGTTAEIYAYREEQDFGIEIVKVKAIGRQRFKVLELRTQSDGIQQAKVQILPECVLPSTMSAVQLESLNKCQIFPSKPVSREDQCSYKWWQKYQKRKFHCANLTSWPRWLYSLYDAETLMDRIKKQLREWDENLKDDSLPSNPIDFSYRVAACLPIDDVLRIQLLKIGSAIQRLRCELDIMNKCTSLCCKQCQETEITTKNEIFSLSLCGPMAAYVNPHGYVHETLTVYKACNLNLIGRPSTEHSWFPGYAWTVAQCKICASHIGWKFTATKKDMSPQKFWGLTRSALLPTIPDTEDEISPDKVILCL
In test [2] the target is T1, Protein cereblon/Tyrosine-protein phosphatase non-receptor type 1. The experiment in a line: PROTAC activity at PTP1B/CRBN in insulin treated human HepG2 cells assessed as protein degradation at 50 nM incubated for 48 hrs by Western blot analysis relative to control.
Target sequence in this assay (P18031 whole entry, looked up): as the sequence (P18031 whole entry, looked up) above
Target sequence in this assay (Q96SW2 whole entry, looked up): as the sequence (Q96SW2 whole entry, looked up) above
The target is the same in test [3]. As to the kind of experiment: PROTAC activity at PTP1B/CRBN in insulin treated human HepG2 cells assessed as protein degradation at 500 nM incubated for 48 hrs by Western blot analysis relative to control.
Target sequence in this assay (P18031 whole entry, looked up): as the sequence (P18031 whole entry, looked up) above
Target sequence in this assay (Q96SW2 whole entry, looked up): as the sequence (Q96SW2 whole entry, looked up) above
Test [4] shares this target. As to the kind of experiment: PROTAC activity at PTP1B/CRBN in insulin treated human HepG2 cells assessed as protein degradation at 5000 nM incubated for 48 hrs by Western blot analysis relative to control.
Target sequence in this assay (P18031 whole entry, looked up): as the sequence (P18031 whole entry, looked up) above
Target sequence in this assay (Q96SW2 whole entry, looked up): as the sequence (Q96SW2 whole entry, looked up) above
The target is the same in test [5]. As to the kind of experiment: PROTAC activity at PTP1B/CRBN in insulin treated human HepG2 cells assessed as protein degradation incubated for 48 hrs by Western blot analysis. For orientation: A western blot detects proteins with antibodies after separation by electrophoresis.
The target is the same in test [6]. The experiment in a line: PROTAC activity at PTP1B/CRBN in insulin treated human HepG2 cells assessed as protein degradation incubated for 72 hrs by Western blot analysis.
The target is the same in test [7]. The experiment in a line: PROTAC activity at PTP1B/CRBN in insulin treated human HepG2 cells assessed as protein degradation at 1 nM incubated for 48 hrs by Western blot analysis relative to control.
Target sequence in this assay (P18031 whole entry, looked up): as the sequence (P18031 whole entry, looked up) above
Target sequence in this assay (Q96SW2 whole entry, looked up): as the sequence (Q96SW2 whole entry, looked up) above
Test [8] has the same target. The experiment in a line: PROTAC activity at PTP1B/CRBN in insulin treated human HepG2 cells assessed as protein degradation at 1 nM incubated for 72 hrs by Western blot analysis relative to control.
Target sequence in this assay (P18031 whole entry, looked up): as the sequence (P18031 whole entry, looked up) above
Target sequence in this assay (Q96SW2 whole entry, looked up): as the sequence (Q96SW2 whole entry, looked up) above
Test [9] has the same target. The experiment in a line: PROTAC activity at PTP1B/CRBN in insulin treated human HepG2 cells assessed as protein degradation at 5 nM incubated for 72 hrs by Western blot analysis relative to control.
Test [10] shares this target. As to the kind of experiment: PROTAC activity at PTP1B/CRBN in insulin treated human HepG2 cells assessed as protein degradation at 25 nM incubated for 48 hrs by Western blot analysis relative to control.
The target is the same in test [11]. As to the kind of experiment: PROTAC activity at PTP1B/CRBN in insulin treated human HepG2 cells assessed as protein degradation at 25 nM incubated for 72 hrs by Western blot analysis relative to control.
Test [12] has the same target. As to the kind of experiment: PROTAC activity at PTP1B/CRBN in insulin treated human HepG2 cells assessed as protein degradation at 125 nM incubated for 48 hrs by Western blot analysis relative to control.
The target is the same in test [13]. As to the kind of experiment: PROTAC activity at PTP1B/CRBN in insulin treated human HepG2 cells assessed as protein degradation at 125 nM incubated for 72 hrs by Western blot analysis relative to control.
The target is the same in test [14]. As to the kind of experiment: PROTAC activity at PTP1B/CRBN in insulin treated human HepG2 cells assessed as protein degradation at 625 nM incubated for 48 hrs by Western blot analysis relative to control.
For test [15] the target is unchanged. The experiment in a line: PROTAC activity at PTP1B/CRBN in insulin treated human HepG2 cells assessed as protein degradation at 625 nM incubated for 72 hrs by Western blot analysis relative to control.
Test [16] shares this target. As to the kind of experiment: PROTAC activity at PTP1B/CRBN in insulin treated human HepG2 cells assessed as protein degradation at 1250 nM incubated for 48 hrs by Western blot analysis relative to control.
For test [17] the target is unchanged. The experiment in a line: PROTAC activity at PTP1B/CRBN in insulin treated human HepG2 cells assessed as protein degradation at 1250 nM incubated for 72 hrs by Western blot analysis relative to control.

With `CC1(C)CC[C@]2(C(=O)NCCCCCCOCCOCCOCC(=O)Nc3cccc4c3C(=O)N(C3CCC(=O)NC3=O)C4=O)CC[C@]3(C)C(=CC[C@@H]4[C@@]5(C)CC[C@H](O)C(C)(C)[C@@H]5CC[C@]43C)[C@@H]2C1` (stereo not given in full), the Activity in [1] is 84%; in [2], 56%; in test [3], 38%; in test [4], < 5%.

For `CC1(C)CC[C@]2(C(=O)NCCCCCCOCCOCCCCCC(=O)Nc3cccc4c3C(=O)N(C3CCC(=O)NC3=O)C4=O)CC[C@]3(C)C(=CC[C@@H]4[C@@]5(C)CC[C@H](O)C(C)(C)[C@@H]5CC[C@]43C)[C@@H]2C1` (stereo not given in full), the Activity in [1] is 45%; in [2] it was 33%; in test [3], 36%; in [4], < 5%.

For the compound `CC1(C)CC[C@]2(C(=O)NCCCOCCCCOCCCNc3cccc4c3C(=O)N(C3CCC(=O)NC3=O)C4=O)CC[C@]3(C)C(=CC[C@@H]4[C@@]5(C)CC[C@H](O)C(C)(C)[C@@H]5CC[C@]43C)[C@@H]2C1` (stereo not given in full), the Activity is 17% in test [1]; 75% in test [2]; 55% in test [3]; 58% in test [4]; “Dose-Dependent Effect” in test [5]; “Dose-Dependent Effect” in test [6]. For the same compound, the Activity is 33% in [7]; 5% in test [8]; 54% in [9]; < 5% in test [10]; 66% in test [11]; 8% in test [12]. In addition, the Activity in [13] turned out to be 43%; in [14], 45%; in test [15], 47%; in test [16], 62%; in [17] it was 53%. Moreover, the results for the DC50 in test [5] and in test [6] were 770 nM and 200 nM, respectively.

Turning to `O=C1CCC(N2C(=O)c3cccc(NC(=O)CCCCCOCCOCCCCCCNC(=O)c4cccc(NC(=O)CSc5nc6ccccc6[nH]5)c4)c3C2=O)C(=O)N1` (stereo not given), the Activity in test [1] was < 5%; in test [2] it was 17%; in [3] it was 13%; in test [4] it was 10%.

As for `O=C1CCC(N2C(=O)c3cccc(NC(=O)CCCCCOCCOCCOCCCCCCNC(=O)c4cccc(NC(=O)CSc5nc6ccccc6[nH]5)c4)c3C2=O)C(=O)N1` (stereo not given), the Activity in [1] is 8%; in test [2] it was 32%; in [3] it was < 5%; in test [4], 30%.

For the compound `C[C@H]1[C@H](C)CC[C@]2(C(=O)NCCCOCCCCOCCCNc3cccc4c3C(=O)N(C3CCC(=O)NC3=O)C4=O)CC[C@]3(C)C(=CC[C@@H]4[C@@]5(C)CC[C@H](O)C(C)(C)C5CC[C@]43C)[C@H]12` (stereo not given in full), the Activity in [1] worked out at 36%; in [2], 65%; in [3], 54%; in test [4] it was 46%.

Consider `CC1(C)CC[C@]2(C(=O)NCCCCCCOCCOCCOCCCCCC(=O)Nc3cccc4c3C(=O)N(C3CCC(=O)NC3=O)C4=O)CC[C@]3(C)C(=CC[C@@H]4[C@@]5(C)CC[C@H](O)C(C)(C)[C@@H]5CC[C@]43C)[C@@H]2C1` (stereo not given in full), for which the Activity is 8% in [1], 16% in test [2], < 5% in [3] and 22% in test [4].

As for `CC1(C)CC[C@]2(C(=O)NCCCCCCOCCOCCOCCOCC(=O)Nc3cccc4c3C(=O)N(C3CCC(=O)NC3=O)C4=O)CC[C@]3(C)C(=CC[C@@H]4[C@@]5(C)CC[C@H](O)C(C)(C)[C@@H]5CC[C@]43C)[C@@H]2C1` (stereo not given in full), the Activity in [1] amounted to 24%; in [2] it was 51%; in [3], 6%; in [4] it was 32%.

Take `C[C@H]1[C@H](C)CC[C@]2(C(=O)NCCCCCCOCCOCCOCCOCCCCCC(=O)Nc3cccc4c3C(=O)N(C3CCC(=O)NC3=O)C4=O)CC[C@]3(C)C(=CC[C@@H]4[C@@]5(C)CC[C@H](O)C(C)(C)[C@@H]5CC[C@]43C)[C@H]12` (stereo not given in full): the Activity was < 5% in test [1], < 5% in [2], 12% in test [3] and 42% in [4].

As for `O=C1CCC(N2C(=O)c3cccc(NC(=O)COCCOCCOCCCCCCNC(=O)c4cccc(NC(=O)CSc5nc6ccccc6[nH]5)c4)c3C2=O)C(=O)N1` (stereo not given), the Activity in [1] is 71%; in test [2], 38%; in test [3] it was 13%; in [4], < 5%.

Turning to `C[C@H]1[C@H](C)CC[C@]2(C(=O)NCCCCCCOCCOCC(=O)Nc3cccc4c3C(=O)N(C3CCC(=O)NC3=O)C4=O)CC[C@]3(C)C(=CC[C@@H]4[C@@]5(C)CC[C@H](O)C(C)(C)[C@@H]5CC[C@]43C)[C@H]12` (stereo not given in full), the Activity in test [1] is 46%; in test [2], 60%; in test [3] it was < 5%; in test [4], < 5%.

Turning to `O=C1CCC(N2C(=O)c3cccc(NC(=O)COCCOCCCCCCNC(=O)c4cccc(NC(=O)CSc5nc6ccccc6[nH]5)c4)c3C2=O)C(=O)N1` (stereo not given), the Activity in [1] was 24%; in [2], 69%; in test [3], 43%; in test [4] it was < 5%.

As for `O=C1CCC(N2C(=O)c3cccc(NC(=O)CCCCCCCCCCNC(=O)c4cccc(NC(=O)CSc5nc6ccccc6[nH]5)c4)c3C2=O)C(=O)N1` (stereo not given), the Activity in test [1] was 32%; in test [2], 9%; in test [3], 19%; in test [4], < 5%.

As for `C[C@H]1[C@H](C)CC[C@]2(C(=O)NCCCCCCOCCOCCOCCCCCC(=O)Nc3cccc4c3C(=O)N(C3CCC(=O)NC3=O)C4=O)CC[C@]3(C)C(=CC[C@@H]4[C@@]5(C)CC[C@H](O)C(C)(C)[C@@H]5CC[C@]43C)[C@H]12` (stereo not given in full), the Activity in [1] was 16%; in [2] it was < 5%; in [3], 6%; in [4], 17%.

In the case of `CC1(C)CC[C@]2(C(=O)NCCCCCCNc3cccc4c3C(=O)N(C3CCC(=O)NC3=O)C4=O)CC[C@]3(C)C(=CC[C@@H]4[C@@]5(C)CC[C@H](O)C(C)(C)[C@@H]5CC[C@]43C)[C@@H]2C1` (stereo not given in full), the Activity in test [1] came to 38%; in [2], 44%; in test [3] it was 43%; in test [4], 29%.

`C[C@H]1[C@H](C)CC[C@]2(C(=O)NCCCCCCNc3cccc4c3C(=O)N(C3CCC(=O)NC3=O)C4=O)CC[C@]3(C)C(=CC[C@@H]4[C@@]5(C)CC[C@H](O)C(C)(C)[C@@H]5CC[C@]43C)[C@H]12` (stereo not given in full): the Activity was found to be 11% in test [1], 67% in test [2], 23% in [3] and 14% in test [4].

For `CC1(C)CC[C@]2(C(=O)NCCCCCCOCCOCC(=O)Nc3cccc4c3C(=O)N(C3CCC(=O)NC3=O)C4=O)CC[C@]3(C)C(=CC[C@@H]4[C@@]5(C)CC[C@H](O)C(C)(C)[C@@H]5CC[C@]43C)[C@@H]2C1` (stereo not given in full), the Activity was 57% in [1], 51% in test [2], 26% in [3] and < 5% in test [4].

For the compound `O=C1CCC(N2C(=O)c3cccc(NC(=O)CCCCCOCCOCCOCCOCCCCCCNC(=O)c4cccc(NC(=O)CSc5nc6ccccc6[nH]5)c4)c3C2=O)C(=O)N1` (stereo not given), the Activity is 32% in test [1], 17% in test [2], < 5% in test [3] and < 5% in [4].

`O=C1CCC(N2C(=O)c3cccc(NC(=O)COCCOCCOCCOCCCCCCNC(=O)c4cccc(NC(=O)CSc5nc6ccccc6[nH]5)c4)c3C2=O)C(=O)N1` (stereo not given): the Activity in test [1] turned out to be 26%; in [2] it was 70%; in test [3] it was 44%; in test [4] it was 15%.

On to `C[C@H]1[C@H](C)CC[C@]2(C(=O)NCCCCCCOCCOCCCCCC(=O)Nc3cccc4c3C(=O)N(C3CCC(=O)NC3=O)C4=O)CC[C@]3(C)C(=CC[C@@H]4[C@@]5(C)CC[C@H](O)C(C)(C)[C@@H]5CC[C@]43C)[C@H]12` (stereo not given in full), for which the Activity in test [1] is 18%; in test [2], 47%; in test [3] it was 29%; in test [4], 5%.

Usually DC50 stands for the concentration at which degradation of the target reaches its halfway point.
